Active and inactive are the calls of the source.
Assays:
Aminopeptidase N = Aminopeptidase N (Plasmodium falciparum FcB1/Columbia, UniProt O96935); test: P. falciparum M1AAP inhibitors, biochemical, fluorogenic H-Leu-NHMec substrate, 1536-well (AID 1445); set-up: species or system Plasmodium falciparum 3D7, 3D7
Large T antigen = Large T antigen (Simian virus 40, UniProt P03070); format: functional, Betapolyomavirus macacae;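 also: Confirmatory-stage PubChem screen for compounds that inhibit SV40 T antigen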
[1] = target: T1, Calpain-2 catalytic subunit (Sus scrofa, UniProt P43367); test: pig calpain II inhibitor potency, dose response, biochemical, fluorogenic peptide substrate (AID 1420); format: functional
T1 sequence (P43367 whole entry): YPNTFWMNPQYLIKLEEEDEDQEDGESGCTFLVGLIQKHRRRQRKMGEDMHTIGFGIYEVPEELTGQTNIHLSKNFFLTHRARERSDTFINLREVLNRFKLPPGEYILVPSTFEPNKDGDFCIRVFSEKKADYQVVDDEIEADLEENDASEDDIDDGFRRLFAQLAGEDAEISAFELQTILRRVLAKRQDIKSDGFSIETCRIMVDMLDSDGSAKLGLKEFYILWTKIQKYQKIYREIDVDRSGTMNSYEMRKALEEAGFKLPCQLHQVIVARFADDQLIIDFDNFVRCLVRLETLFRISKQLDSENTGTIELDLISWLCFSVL

[2] = target: Bifunctional protein GlmU (Mycobacterium tuberculosis, UniProt P9WMN3); test: Inhibitors of Mycobacterial Glucosamine-1-phosphate acetyl transferase (GlmU). Secondary screen.; set-up: species or system Mycobacterium tuberculosis H37Rv
[3] = target: Induced myeloid leukemia cell differentiation protein Mcl-1 (Homo sapiens, UniProt Q07820); format: functional
[4] = target: Intestinal-type alkaline phosphatase (Mus musculus, UniProt P24822); test: PubChem AID 488785; format: functional
[5] = target: T2, Alkaline phosphatase, tissue-nonspecific isozyme (Homo sapiens, UniProt P05186); test: TNAP enzyme inhibition by screening hits, dose response, selectivity assay for mouse IAP inhibitor project, biochemical, human TNAP, uHTS hits (AID 488906); format: functional
T2 sequence (P05186 whole entry): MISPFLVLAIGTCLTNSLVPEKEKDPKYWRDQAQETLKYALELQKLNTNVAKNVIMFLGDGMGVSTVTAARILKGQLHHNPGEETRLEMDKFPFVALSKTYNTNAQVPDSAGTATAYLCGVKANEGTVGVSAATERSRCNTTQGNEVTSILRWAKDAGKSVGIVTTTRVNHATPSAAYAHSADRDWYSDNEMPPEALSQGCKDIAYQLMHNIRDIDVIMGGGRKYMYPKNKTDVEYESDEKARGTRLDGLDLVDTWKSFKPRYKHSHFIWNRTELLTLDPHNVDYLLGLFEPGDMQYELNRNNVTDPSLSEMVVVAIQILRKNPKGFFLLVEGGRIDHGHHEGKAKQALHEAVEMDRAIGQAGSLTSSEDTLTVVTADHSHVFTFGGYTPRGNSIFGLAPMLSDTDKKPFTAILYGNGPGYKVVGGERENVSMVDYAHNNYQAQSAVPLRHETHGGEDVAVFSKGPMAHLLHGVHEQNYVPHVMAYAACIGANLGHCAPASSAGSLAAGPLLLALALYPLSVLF

[6] = target: Intestinal-type alkaline phosphatase (Homo sapiens, UniProt P09923); test: inhibition of human intestinal alkaline phosphatase – biochemical, dose response (AID 488876); format: functional
Hexokinase HKDC1 = target: T3, Hexokinase HKDC1 (Homo sapiens, UniProt Q2TB90); test: HKDC1 hexokinase activators, dose response, biochemical, W721R variant (AID 504730); format: functional
T3 sequence (Q2TB90 whole entry): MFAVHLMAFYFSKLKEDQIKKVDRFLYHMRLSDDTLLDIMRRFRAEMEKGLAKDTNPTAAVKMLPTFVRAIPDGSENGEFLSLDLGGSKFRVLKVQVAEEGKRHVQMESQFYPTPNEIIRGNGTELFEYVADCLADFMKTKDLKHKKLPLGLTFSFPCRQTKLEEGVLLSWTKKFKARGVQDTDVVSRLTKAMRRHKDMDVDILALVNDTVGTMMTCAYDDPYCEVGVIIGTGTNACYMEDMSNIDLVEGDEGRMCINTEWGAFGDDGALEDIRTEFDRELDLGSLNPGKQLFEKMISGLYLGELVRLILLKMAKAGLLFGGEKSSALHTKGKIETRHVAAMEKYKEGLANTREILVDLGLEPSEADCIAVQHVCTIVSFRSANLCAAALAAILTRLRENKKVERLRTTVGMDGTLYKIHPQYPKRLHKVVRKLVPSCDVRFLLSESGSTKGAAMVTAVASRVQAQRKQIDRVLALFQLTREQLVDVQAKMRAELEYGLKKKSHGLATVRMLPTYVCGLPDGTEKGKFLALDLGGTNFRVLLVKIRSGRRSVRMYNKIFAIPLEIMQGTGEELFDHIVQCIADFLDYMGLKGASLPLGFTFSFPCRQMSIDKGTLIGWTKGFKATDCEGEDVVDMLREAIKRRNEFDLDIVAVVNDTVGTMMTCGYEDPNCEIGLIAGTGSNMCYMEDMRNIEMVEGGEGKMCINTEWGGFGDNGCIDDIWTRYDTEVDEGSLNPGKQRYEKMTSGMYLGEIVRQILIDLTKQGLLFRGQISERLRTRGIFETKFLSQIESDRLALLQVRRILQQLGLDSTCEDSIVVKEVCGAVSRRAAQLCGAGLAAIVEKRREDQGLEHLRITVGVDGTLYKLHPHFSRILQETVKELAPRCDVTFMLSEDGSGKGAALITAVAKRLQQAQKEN

Hexokinase-1 = Hexokinase-1 (Homo sapiens, UniProt P19367); test: hexokinase 1 activators, dose response, selectivity assay for HKDC1 activator project, biochemical (AID 504762); format: functional
[7] = target: Lysine-specific demethylase 4C (Homo sapiens, UniProt Q9H3R0); test: GASC-1 (JMJD2C) histone demethylase inhibitors, dose response, biochemical, DELFIA europium, cherry-picked samples (AID 488835); format: functional
Bcl-2-related protein A1 = target: T4, Bcl-2-related protein A1 (Mus musculus, UniProt Q07440); format: functional;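 also: confirmatory dose–response counterscreen on Bfl-1, used to check hits from a UBC13 polyubiquitin inhibitor campaign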
T4 sequence (Q07440 whole entry): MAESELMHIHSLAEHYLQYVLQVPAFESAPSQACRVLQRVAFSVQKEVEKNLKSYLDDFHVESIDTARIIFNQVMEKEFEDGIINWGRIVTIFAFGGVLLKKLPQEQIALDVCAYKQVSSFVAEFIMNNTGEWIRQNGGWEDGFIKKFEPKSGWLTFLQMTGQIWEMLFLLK

[8] = target: T5, Ubiquitin-conjugating enzyme E2 N (Homo sapiens, UniProt P61088); format: functional
T5 sequence (P61088 whole entry): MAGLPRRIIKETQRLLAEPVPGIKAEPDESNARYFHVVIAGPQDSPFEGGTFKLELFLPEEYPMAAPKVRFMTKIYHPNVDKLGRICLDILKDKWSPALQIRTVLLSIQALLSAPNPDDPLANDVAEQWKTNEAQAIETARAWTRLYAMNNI

[9] = target: T5, Ubiquitin-conjugating enzyme E2 N; format: functional; remark: listed apart in the source
[10] = Luminescence Cell-Based Dose Response HTS to Identify Inhibitors of Luciferase Translation or Activity in H4-C Neuroglioblastoma Cells. [Related pubchem assays: 1813 (Primary HTS), 1827 (Project Summary)]; format: functional
[11] = Luminescence Cell-Based Dose Response HTS to Identify Activators of Luciferase Translation or Activity in H4-C Neuroglioblastoma Cells. [Related pubchem assays: 1829 (Project Summary), 1814 (Primary HTS)]; format: functional
[12] = Luminescence Cell-Based Dose Retest to Confirm Activators of 5'UTR Stem-Loop Driven Alpha-Synuclein mRNA Translation in H4 Neuroglioblastoma Cells. [Related pubchem assays (depositor defined):AID1813, AID1829]; format: functional
[13] = Luminescence Cell-Based Dose Response HTS to Identify Activators of 5'UTR Stem-Loop Driven Prion Protein mRNA Translation in H4-C Neuroglioblastoma Cells. [Related pubchem assays: 1829 (Project Summary), 1814 (Primary HTS)]; format: functional
[14] = Luminescence Cell-Based Dose HTS Response to Identify Inhibitors of 5'UTR Stem-Loop Driven Prion Protein mRNA Translation in H4-C Neuroglioblastoma Cells. [Related pubchem assays (depositor defined):AID1814, AID1827]; format: functional
[15] = Luminescence Cell-Based Dose Confirmation HTS to Identify Inhibitors of 5'UTR Stem-Loop Driven Alpha-Synuclein mRNA Translation in H4 Neuroglioblastoma Cells. [Related pubchem assays: 1827 (Project Summary), 1813 (Primary HTS)]; format: functional
[16] = target: Signal transducer and activator of transcription 3 (Homo sapiens, UniProt P40763); test: STAT3 inhibitors, late-stage profile, late-stage follow-up, cell-based, STAT1 panel, qPCR, cytotoxicity, panel member STAT3 Inhibition (AID 2078)
[17] = target: Signal transducer and activator of transcription 1-alpha/beta (Homo sapiens, UniProt P42224); test: STAT3 inhibitors, late-stage profile, late-stage follow-up, cell-based, STAT1 panel, qPCR, cytotoxicity, panel member STAT1 Inhibition (AID 2078)
[18] = target: T6, G-protein coupled receptor 35 (Homo sapiens, UniProt Q9HC97); test: SAR analysis of Agonists of the GPR35 Receptor using an Image-Based Assay - Set 4. [Related pubchem assays (depositor defined):AID2013, AID2026]; format: functional
Cannabinoid receptor 1 [19] = target: T7, Cannabinoid receptor 1 (Homo sapiens, UniProt P21554); test: SAR analysis of agonists of the Cannabinoid Receptor 1 using an Image-Based Assay - Set 4. [Related pubchem assays (depositor defined):AID2013, AID2026]; format: functional
[20] = target: T6, G-protein coupled receptor 35; test: SAR analysis of Antagonists of the GPR35 Receptor using an Image-Based Assay - Set 6. [Related pubchem assays (depositor defined):AID2013, AID2026]; format: functional
Cannabinoid receptor 1 [21] = target: T7, Cannabinoid receptor 1; test: SAR analysis of antagonists of the Cannabinoid Receptor 1 using an Image-Based Assay - Set 4. [Related pubchem assays (depositor defined):AID2013, AID2026]; format: functional
[22] = target: T8, G-protein coupled receptor 55 (Homo sapiens, UniProt Q9Y2T6); test: SAR Analysis of Selective Antagonists of GPR55 using an Image-Based Assay - Set 4. [Related pubchem assays (depositor defined):AID2013, AID2026]; format: functional
Cannabinoid receptor 2 [23] = target: T9, Cannabinoid receptor 2 (Homo sapiens, UniProt P34972); test: SAR analysis of antagonists of the Cannabinoid Receptor 2 using an Image-Based Assay - Set 3. [Related pubchem assays (depositor defined):AID2013, AID2026]; format: functional
Cannabinoid receptor 2 [24] = target: T9, Cannabinoid receptor 2; test: SAR analysis of agonists of the Cannabinoid Receptor 2 using an Image-Based Assay - Set 3. [Related pubchem assays (depositor defined):AID2013, AID2026]; format: functional
[25] = target: Kappa-type opioid receptor (Homo sapiens, UniProt P41145); test: SAR analysis of small molecule agonists of the kappa opioid receptor via a luminescent beta-arrestin assay - Set 3. [Related pubchem assays (depositor defined):AID1777, AID1785, AID1786, AID1966, AID2133, AID2136, AID2284, AID2500]; format: functional
[26] = target: T8, G-protein coupled receptor 55; test: GPR55 antagonists, SAR follow-up, counter-screen for GPR35 antagonist project, imaging, image-based (AID 2397); format: functional

T7 sequence (P21554 whole entry): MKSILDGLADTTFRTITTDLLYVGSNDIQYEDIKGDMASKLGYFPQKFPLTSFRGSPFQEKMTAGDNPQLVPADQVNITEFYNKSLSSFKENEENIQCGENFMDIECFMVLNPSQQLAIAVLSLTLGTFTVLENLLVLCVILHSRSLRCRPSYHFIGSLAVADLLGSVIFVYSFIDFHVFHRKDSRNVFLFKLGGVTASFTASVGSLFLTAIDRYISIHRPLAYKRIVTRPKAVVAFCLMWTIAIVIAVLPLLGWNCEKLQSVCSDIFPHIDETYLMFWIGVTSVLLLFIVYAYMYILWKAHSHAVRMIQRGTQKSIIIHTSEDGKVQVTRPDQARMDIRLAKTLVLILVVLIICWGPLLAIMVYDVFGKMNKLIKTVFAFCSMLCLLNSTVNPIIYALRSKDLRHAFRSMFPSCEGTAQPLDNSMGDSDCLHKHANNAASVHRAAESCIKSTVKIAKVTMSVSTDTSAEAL
T8 sequence (Q9Y2T6 whole entry): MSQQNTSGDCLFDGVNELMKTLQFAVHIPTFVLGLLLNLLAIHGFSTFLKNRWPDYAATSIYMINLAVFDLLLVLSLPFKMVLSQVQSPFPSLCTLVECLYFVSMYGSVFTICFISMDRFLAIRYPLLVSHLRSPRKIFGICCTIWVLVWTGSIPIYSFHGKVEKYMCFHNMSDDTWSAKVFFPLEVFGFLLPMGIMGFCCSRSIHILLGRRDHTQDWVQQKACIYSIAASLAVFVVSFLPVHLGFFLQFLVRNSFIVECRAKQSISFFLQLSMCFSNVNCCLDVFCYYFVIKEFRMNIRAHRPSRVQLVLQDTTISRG
T6 sequence (Q9HC97 whole entry): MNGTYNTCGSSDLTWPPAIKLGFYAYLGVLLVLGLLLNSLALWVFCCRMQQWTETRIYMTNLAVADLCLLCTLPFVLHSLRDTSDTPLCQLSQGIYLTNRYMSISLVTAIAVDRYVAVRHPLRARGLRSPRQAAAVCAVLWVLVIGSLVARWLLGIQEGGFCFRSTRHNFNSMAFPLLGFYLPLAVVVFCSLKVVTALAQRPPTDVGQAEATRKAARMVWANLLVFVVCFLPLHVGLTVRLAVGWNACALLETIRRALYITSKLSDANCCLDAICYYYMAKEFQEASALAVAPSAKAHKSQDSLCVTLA
T9 sequence (P34972 whole entry): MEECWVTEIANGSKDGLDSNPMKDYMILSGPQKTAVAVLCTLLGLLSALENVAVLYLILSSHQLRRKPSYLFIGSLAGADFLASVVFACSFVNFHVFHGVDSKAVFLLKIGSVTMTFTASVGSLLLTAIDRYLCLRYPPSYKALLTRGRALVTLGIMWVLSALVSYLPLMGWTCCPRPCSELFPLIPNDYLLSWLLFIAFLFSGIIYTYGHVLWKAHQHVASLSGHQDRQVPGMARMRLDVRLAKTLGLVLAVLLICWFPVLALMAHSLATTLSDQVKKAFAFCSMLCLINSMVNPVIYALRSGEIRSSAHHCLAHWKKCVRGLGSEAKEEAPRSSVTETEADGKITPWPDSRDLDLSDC
Chain of Intestinal-type alkaline phosphatase (Mus musculus, UniProt P24822) (P24822 whole entry): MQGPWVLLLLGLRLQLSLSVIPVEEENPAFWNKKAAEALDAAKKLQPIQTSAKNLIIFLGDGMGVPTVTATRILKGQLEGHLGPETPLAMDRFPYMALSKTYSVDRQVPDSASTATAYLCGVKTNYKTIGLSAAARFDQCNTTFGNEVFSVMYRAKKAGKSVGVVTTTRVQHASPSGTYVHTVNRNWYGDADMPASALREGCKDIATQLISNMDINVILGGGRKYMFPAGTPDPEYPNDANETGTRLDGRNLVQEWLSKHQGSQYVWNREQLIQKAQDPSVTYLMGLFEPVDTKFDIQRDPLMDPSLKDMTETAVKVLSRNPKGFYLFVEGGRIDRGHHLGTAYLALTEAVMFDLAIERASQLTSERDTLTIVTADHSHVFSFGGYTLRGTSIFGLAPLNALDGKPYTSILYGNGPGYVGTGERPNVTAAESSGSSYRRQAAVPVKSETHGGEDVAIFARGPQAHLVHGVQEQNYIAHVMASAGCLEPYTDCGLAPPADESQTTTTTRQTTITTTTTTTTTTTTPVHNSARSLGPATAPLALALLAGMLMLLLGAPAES
Chain of Kappa-type opioid receptor (P41145 whole entry): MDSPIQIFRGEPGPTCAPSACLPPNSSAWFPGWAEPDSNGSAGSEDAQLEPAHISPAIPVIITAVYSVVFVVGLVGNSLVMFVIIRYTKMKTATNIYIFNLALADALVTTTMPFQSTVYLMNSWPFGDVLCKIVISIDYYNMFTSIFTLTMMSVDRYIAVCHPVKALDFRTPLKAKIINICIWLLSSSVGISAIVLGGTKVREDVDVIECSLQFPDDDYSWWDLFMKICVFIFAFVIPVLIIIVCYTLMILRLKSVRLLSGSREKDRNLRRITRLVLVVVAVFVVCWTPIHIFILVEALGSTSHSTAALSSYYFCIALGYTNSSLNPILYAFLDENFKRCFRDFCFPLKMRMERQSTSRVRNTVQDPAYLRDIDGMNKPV
Chain of Bifunctional protein GlmU (P9WMN3 whole entry): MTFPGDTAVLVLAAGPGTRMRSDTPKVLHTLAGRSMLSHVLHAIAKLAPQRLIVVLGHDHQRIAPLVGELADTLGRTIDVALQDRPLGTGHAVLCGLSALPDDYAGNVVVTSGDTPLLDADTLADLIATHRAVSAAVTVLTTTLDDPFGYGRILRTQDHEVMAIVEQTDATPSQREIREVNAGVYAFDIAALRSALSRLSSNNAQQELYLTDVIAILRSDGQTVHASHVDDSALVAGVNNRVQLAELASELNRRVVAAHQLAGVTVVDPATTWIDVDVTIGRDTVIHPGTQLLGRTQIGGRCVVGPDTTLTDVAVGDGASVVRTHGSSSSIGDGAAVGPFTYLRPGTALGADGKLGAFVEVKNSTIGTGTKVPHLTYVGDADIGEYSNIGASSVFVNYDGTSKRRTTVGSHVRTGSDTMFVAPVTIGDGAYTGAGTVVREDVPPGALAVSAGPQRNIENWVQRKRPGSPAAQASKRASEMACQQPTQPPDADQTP
Chain of Induced myeloid leukemia cell differentiation protein Mcl-1 (Q07820 whole entry): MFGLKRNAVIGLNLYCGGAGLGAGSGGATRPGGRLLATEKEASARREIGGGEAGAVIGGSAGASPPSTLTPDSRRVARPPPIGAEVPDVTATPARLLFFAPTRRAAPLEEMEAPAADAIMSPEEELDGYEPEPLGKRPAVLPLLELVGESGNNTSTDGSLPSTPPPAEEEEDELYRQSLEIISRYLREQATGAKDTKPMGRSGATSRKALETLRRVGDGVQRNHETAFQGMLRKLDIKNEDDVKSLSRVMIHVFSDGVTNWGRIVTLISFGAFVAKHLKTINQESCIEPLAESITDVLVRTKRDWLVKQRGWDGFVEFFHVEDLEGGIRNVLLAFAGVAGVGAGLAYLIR
Chain of Large T antigen (P03070 whole entry): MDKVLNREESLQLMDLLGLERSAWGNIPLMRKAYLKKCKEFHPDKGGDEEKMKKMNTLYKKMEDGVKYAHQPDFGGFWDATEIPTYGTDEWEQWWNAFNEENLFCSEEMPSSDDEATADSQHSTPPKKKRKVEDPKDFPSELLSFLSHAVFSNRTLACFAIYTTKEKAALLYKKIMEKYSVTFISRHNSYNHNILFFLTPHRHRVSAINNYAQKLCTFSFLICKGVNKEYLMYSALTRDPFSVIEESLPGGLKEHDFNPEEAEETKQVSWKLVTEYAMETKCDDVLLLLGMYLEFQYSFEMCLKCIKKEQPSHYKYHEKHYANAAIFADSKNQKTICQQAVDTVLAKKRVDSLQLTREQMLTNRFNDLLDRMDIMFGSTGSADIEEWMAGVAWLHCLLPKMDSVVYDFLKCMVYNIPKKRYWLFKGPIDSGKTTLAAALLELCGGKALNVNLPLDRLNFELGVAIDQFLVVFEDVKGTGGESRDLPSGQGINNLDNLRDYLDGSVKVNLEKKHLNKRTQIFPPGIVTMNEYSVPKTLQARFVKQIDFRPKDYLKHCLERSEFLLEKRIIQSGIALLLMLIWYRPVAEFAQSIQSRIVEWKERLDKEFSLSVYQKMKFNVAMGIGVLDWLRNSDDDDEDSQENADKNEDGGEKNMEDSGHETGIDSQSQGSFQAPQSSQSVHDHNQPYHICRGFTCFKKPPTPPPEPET
Chain of Signal transducer and activator of transcription 1-alpha/beta (P42224 whole entry): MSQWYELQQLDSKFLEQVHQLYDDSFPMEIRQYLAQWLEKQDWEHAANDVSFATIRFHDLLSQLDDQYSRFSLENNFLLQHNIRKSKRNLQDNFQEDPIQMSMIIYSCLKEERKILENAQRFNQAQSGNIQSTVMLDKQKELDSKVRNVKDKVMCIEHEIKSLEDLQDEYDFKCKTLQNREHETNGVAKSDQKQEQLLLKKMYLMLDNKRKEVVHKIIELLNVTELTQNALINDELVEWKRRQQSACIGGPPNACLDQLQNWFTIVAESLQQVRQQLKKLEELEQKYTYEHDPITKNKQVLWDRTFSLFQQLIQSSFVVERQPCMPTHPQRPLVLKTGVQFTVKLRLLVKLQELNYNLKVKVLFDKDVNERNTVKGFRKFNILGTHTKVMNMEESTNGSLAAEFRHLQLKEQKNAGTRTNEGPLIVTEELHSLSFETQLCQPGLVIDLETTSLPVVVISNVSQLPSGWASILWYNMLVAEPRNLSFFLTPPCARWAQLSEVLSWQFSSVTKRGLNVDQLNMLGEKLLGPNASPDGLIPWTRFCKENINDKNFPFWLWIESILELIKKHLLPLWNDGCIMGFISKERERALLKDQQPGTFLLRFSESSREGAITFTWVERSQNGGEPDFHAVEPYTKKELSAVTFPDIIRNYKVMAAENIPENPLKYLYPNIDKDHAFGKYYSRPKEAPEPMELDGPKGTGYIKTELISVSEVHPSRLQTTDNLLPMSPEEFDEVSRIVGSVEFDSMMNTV

Q: For `O=C(NN1C(=O)/C(=C/C=C/c2ccco2)SC1=S)c1ccccc1O`, which IC50 (Aminopeptidase N) is on record?
A: 73.5 µM (active)

Q: What about the IC50 (Large T antigen) of the same compound?
A: 18.8 µM (active)

Q: What about the IC50 [1] of the same compound?
A: 47.6 µM (not active)

Q: And the IC50 [2]?
A: 80.6 µM (active)

Q: And the IC50 [3]?
A: 2.42 µM (active)

Q: What about the IC50 [4] of the same compound?
A: 15.8 µM (active)

Q: And the IC50 [5]?
A: 25.9 µM (active)

Q: What about the IC50 [6] of the same compound?
A: 30.7 µM (active)

Q: With `CCc1c(C)c(C#N)c2nc3ccccc3n2c1NC` as the compound, how does the EC50 (Hexokinase HKDC1) read?
A: 44.8 µM (inactive)

Q: And the EC50 (Hexokinase-1)?
A: 21.1 µM (inactive)

Q: Which AC50 [7] does the source give for `CN1C(=O)N(C)C(=O)C2(Cc3ccccc3N3CCCC32)C1=O` (stereo unspecified) here?
A: 14.2 µM (active)

Q: For `CN(C)CCCN(C(=O)c1ccc(S(=O)(=O)N2CCCCCC2)cc1)c1nc2ccc(Br)cc2s1`, which IC50 (Bcl-2-related protein A1) is on record?
A: > 20 µM (inactive)

Q: What about the IC50 [8] of the same compound?
A: 13.4 µM (active)

Q: And the IC50 [9]?
A: 10.3 µM (active)

Q: With `COC(=O)c1c(NC(=O)c2ccc([N+](=O)[O-])o2)sc2c1CCN(C(C)C)C2` as the compound, how does the EC50 [10] read?
A: 1.33 µM (active)

Q: And the EC50 [11]?
A: 2.12 µM (inconclusive)

Q: And the EC50 [12]?
A: 1.88 µM (inconclusive)

Q: And the EC50 [13]?
A: 2.23 µM (inconclusive)

Q: And the EC50 [14]?
A: 2.94 µM (active)

Q: What about the EC50 [15] of the same compound?
A: 3.35 µM (active)

Q: What does the source list for `O=C(c1ccc(Cl)cc1)C1CCN(c2ncnc3sccc23)CC1`?
A: IC50 [16]: 0.837 µM (active); IC50 [17]: > 55.7 µM (inactive)

Q: Which results are given for `O=C(Cc1ccc2c(c1)OCO2)N1CCC(n2nc(-c3ccccc3)oc2=O)CC1`?
A: EC50 [18]: > 32 µM (inactive); EC50 (Cannabinoid receptor 1 [19]): > 32 µM (inactive); IC50 [20]: > 32 µM (inactive); IC50 (Cannabinoid receptor 1 [21]): 15.8 µM (inactive); IC50 [22]: > 32 µM (inactive); IC50 (Cannabinoid receptor 2 [23]): > 32 µM (inactive); EC50 (Cannabinoid receptor 2 [24]): > 32 µM (inactive)

Q: Which EC50 [25] does the source give for `Clc1ccccc1Cn1c(SCc2ccccc2)nnc1-c1ccccn1` here?
A: > 20 µM (inactive)

Q: For `Clc1ccc(Cn2ncc3c(N4CCN(c5cccc(Cl)c5)CC4)ncnc32)cc1`, which IC50 [26] is on record?
A: > 32 µM (inactive)
